The Papp A→B is the apparent permeability from the apical to the basolateral side of a cell layer. A high value points to fast passage.

A short description of the series: Unidirectional (A→B) permeability across Caco-2 cell monolayer. To be noted: human, Caco-2, pH 7.4, Caco-2 Permeability (Papp) (A→B); for Papp A→B at 120 min, 1 μg/mL: compound alone, 1 μg/mL in HBSS buffer, pH 7.4, 120 min. The method, then: The Caco-2 permeability of two Withania somnifera extracts prepared by the claimed method of the present application (EXT001 and EXT002) and one Withania somnifera extract prepared using an alternative method (ALT001) were measured for comparison. Caco-2 cells (ATCC HTB-37) were grown on 24 well Transwell plates for 21 days. as per internal protocol number MET-TDDC-011. On the day of experiment the transepithelial electrical resistance (TEER) was measured across the monolayer and wells with TEER greater than 200 ohm*cm^2 were used for the permeability assessment. Incubation buffer consisted of Hanks balanced salt solution (HBSS) without CaCl2 and MgCl2, adjusted to pH 7.4, for both the donor, and the receiver. […] Lucifer yellow was used as zero permeability reference to check membrane integrity.
The compound solutions were prepared in HBSS buffer (pH 7.4) at a concentration of 1 μg/mL for permeability assessment. 5 mg each of Withania somnifera extracts EXT002 and EXT001 were added to 5 mL of HBSS buffer and vortexed for 2 hours followed by filtration through 0.22 μm syringe filter. These solutions were used for permeability determination. […] The methanolic extract was filtered through 0.22 μm filter. This extract was concentrated to 1 mL by passing nitrogen gas at 40° C. for 1 hr. Then 20 μL of this extract was spiked in 2 mL of HBSS buffer and filtered through 0.22 μm filter. This solution was used for the permeability study.
The permeability assay was performed in triplicate for each compound or product. Prior to the permeability assay, the transwells were washed with in pre-warmed HBSS buffer. The medium in the insert was aspirated and then the transwells were transferred to a 24-well plate with blank HBSS buffer (600 μL) in each well, and compound solution (102.5 μL, of which 2.5 μL was sampled immediately as the zero-minute donor) was added to each insert. Receiver samples (25 μL) were collected at 60, and 120 minutes, and replaced with an equal volume of fresh pre-warmed receiver buffer (at 60 minutes). The donor side was sampled (2.5 μL) at 0 and 120 minutes. The assay was conducted at 37° C. in a humidified CO2 incubator.
For analysis, any necessary dilutions of samples were performed with HBSS, pH 7.4. 25 μL of sample was mixed with 100 μL of acetonitrile with 25 ng/mL of mitragynine internal standard (IS), and then mixed and filtered through 0.4 μm filter plate to by centrifugation for 5 minutes at 2,000 rpm to a polypropylene 96-well plate for analysis. The samples were assayed by LC-MS/MS method.
The apparent permeability coefficient (Papp) and recovery were calculated as follows: […]
Where, VA is the volume of the acceptor compartment; A is the diffusional area of the membrane (0.33 cm^2); T is the length of study; [Drug]ini,donor is the donor compound amount at 0 minute; [Drug]acceptor is the acceptor compound amount at 120 minute. The compounds with permeability above 5×10^−6 cm/s will be considered high permeability compounds while those with permeability below 5×10^−6 cm/s will be considered low permeability compounds.
For orientation: Passage across Caco-2 layers is used to estimate intestinal permeability.

Turning to `CC1=C(C)C(=O)O[C@@H]([C@](C)(O)[C@H]2CC[C@H]3[C@@H]4[C@@H]5O[C@@H]5[C@@]5(O)CC=CC(=O)[C@]5(C)[C@H]4CC[C@]23C)C1` [Withanolide A, withanolide A], the Papp A→B at 120 min, 1 μg/mL was 3.23 ± 0.5 ×10⁻⁶ cm/s.
For `CC1=C(C)C(=O)O[C@@H]([C@@H](C)[C@H]2CC[C@H]3[C@@H]4CC=C5C[C@@H](O[C@@H]6O[C@H](CO[C@@H]7O[C@H](CO)[C@@H](O)[C@H](O)[C@H]7O)[C@@H](O)[C@H](O)[C@H]6O)C[C@H](O)[C@]5(C)[C@H]4CC[C@]23C)C1` [Withanolside V, withanoside V], the Papp A→B at 120 min, 1 μg/mL amounted to 4.03 ± 0.87 ×10⁻⁶ cm/s.
In turn, `NS(=O)(=O)c1cc2c(cc1Cl)N=CNS2(=O)=O` [Chlorothiazide, reference compound] displayed a Papp A→B at 120 min, 5 μg/mL of 4.2 ± 1.79 ×10⁻⁶ cm/s.
The molecule `CC1=C(CO)C(=O)O[C@@H]([C@@H](C)[C@H]2CC[C@H]3[C@@H]4C[C@H]5O[C@]56[C@@H](O)C=CC(=O)[C@]6(C)[C@H]4CC[C@]23C)C1` [Withaferin A, withaferin A] registered a Papp A→B at 120 min, 1 μg/mL of 4.55 ± 0.81 ×10⁻⁶ cm/s.
`CC1=C(CO)C(=O)O[C@@H]([C@@H](C)[C@H]2CC[C@H]3[C@@H]4CC=C5C[C@@H](O[C@@H]6O[C@H](CO[C@@H]7O[C@H](CO)[C@@H](O)[C@H](O)[C@H]7O)[C@@H](O)[C@H](O)[C@H]6O)C[C@H](O)[C@]5(C)[C@H]4CC[C@]23C)C1` [Withanoside IV, withanoside IV] had a Papp A→B at 120 min, 1 μg/mL of 5.42 ± 0.69 ×10⁻⁶ cm/s.

These data come from patent publication US12201641B2, “Compositions comprising Withania Somnifera extract for mammalian consumption” (SpecNova LLC, priority 2021, dated 2025).
